Where two headings read alike, the source gives them in different places.
Tested on: Aβ1-42 production
Experiment: Cellular assay for inhibition of Aβ1-42 production (H4 APP751 SWE clone 8.20)
Type: cell-based
Conditions: H4 APP751 SWE clone 8.20 cells, 19 h incubation
Summary of the method: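 Secreted peptide was quantified with a two-antibody homogeneous format combining Wallac-labelled 565, which recognises the Aβ42 end, and APC-labelled 26D6 at 0.8 and 75 ng/well respectively. Antibodies were diluted in 40 mM Tris-HCl, pH 7.4, 0.2% BSA and left overnight at 4 °C after a 19 h compound incubation.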

[1] = class symbols, read-out: Activity Rating (Aβ42 cellular IC50)
[2] = 19 h, class symbols, read-out: Activity Rating (Aβ42 cellular IC50)

SMILES | IC50 [1] | IC50 [2] | other results
COc1cc(Nc2nc3c(c(N4CCC4)n2)CCC3c2ccc(OC(F)(F)F)cc2)ccc1-n1cnc(Cl)c1 (single isomer, unassigned) [Example 101B, 4-(azetidin-1-yl)-N-(4-(4-chloro-1H-imidazol-1-yl)-3-methoxyphenyl)-7-(4-(trifluoromethoxy)phenyl)-6,7-dihydro-5H-cyclopenta[d]pyrimidin-2-amine] | 10 to 100 nM | – | –
CNc1nc(Nc2ccc(-n3cnc(Cl)c3)c(OC)c2)nc2c1CCC2c1cc(F)c(F)c(F)c1 (single isomer, unassigned) [Example 103A, N^2-(4-(4-chloro-1H-imidazol-1-yl)-3-methoxyphenyl)-N^4-methyl-7-(3,4,5-trifluorophenyl)-6,7-dihydro-5H-cyclopenta[d]pyrimidine-2,4-diamine] | 1.5 to 9.9 nM | – | –
CNc1nc(Nc2ccc(-n3cnc(Cl)c3)c(OC)c2)nc2c1CCC2c1cc(F)c(F)c(F)c1 (single isomer, unassigned) [Example 103B, N^2-(4-(4-chloro-1H-imidazol-1-yl)-3-methoxyphenyl)-N^4-methyl-7-(3,4,5-trifluorophenyl)-6,7-dihydro-5H-cyclopenta[d]pyrimidine-2,4-diamine] | 10 to 100 nM | – | –
COc1cc(Nc2nc3c(c(N4CCC(F)(F)C4)n2)CCC3c2cc(F)c(F)c(F)c2)ccc1-n1cnc(Cl)c1 (single isomer, unassigned) [Example 107A, N-(4-(4-chloro-1H-imidazol-1-yl)-3-methoxyphenyl)-4-(3,3-difluoropyrrolidin-1-yl)-7-(3,4,5-trifluorophenyl)-6,7-dihydro-5H-cyclopenta[d]pyrimidin-2-amine] | 10 to 100 nM | – | –
COc1cc(Nc2nc3c(c(N4CCC(F)(F)C4)n2)CCC3c2cc(F)c(F)c(F)c2)ccc1-n1cnc(Cl)c1 (single isomer, unassigned) [Example 107B, N-(4-(4-chloro-1H-imidazol-1-yl)-3-methoxyphenyl)-4-(3,3-difluoropyrrolidin-1-yl)-7-(3,4,5-trifluorophenyl)-6,7-dihydro-5H-cyclopenta[d]pyrimidin-2-amine] | 100 to 1000 nM | – | –
CNc1nc(Nc2ccc(-n3cnc(Cl)c3)c(OC)c2)nc2c1CCC2c1ccc(F)cc1F (single isomer, unassigned) [Example 109A, N^2-(4-(4-Chloro-1H-imidazol-1-yl)-3-methoxyphenyl)-7-(2,4-difluorophenyl)-N^4-methyl-6,7-dihydro-5H-cyclopenta[d]pyrimidine-2,4-diamine] | – | 1.5 to 9.9 nM | –
CNc1nc(Nc2ccc(-n3cnc(Cl)c3)c(OC)c2)nc2c1CCC2c1ccc(F)cc1F (single isomer, unassigned) [Example 109B, N^2-(4-(4-Chloro-1H-imidazol-1-yl)-3-methoxyphenyl)-7-(2,4-difluorophenyl)-N^4-methyl-6,7-dihydro-5H-cyclopenta[d]pyrimidine-2,4-diamine] | 1.5 to 9.9 nM | – | –
CCN(C)c1nc(Nc2ccc(-n3cnc(Cl)c3)c(OC)c2)nc2c1CCCC2c1ccccc1 (single isomer, unassigned) [Example 124A, N^2-(4-(4-Chloro-1H-imidazol-1-yl)-3-methoxyphenyl)-N^4-ethyl-N^4-methyl-8-phenyl-5,6,7,8-tetrahydroquinazoline-2,4-diamine] | 1.5 to 9.9 nM | – | –
CCN(C)c1nc(Nc2ccc(-n3cnc(Cl)c3)c(OC)c2)nc2c1CCCC2c1ccccc1 (single isomer, unassigned) [Example 124B, N^2-(4-(4-Chloro-1H-imidazol-1-yl)-3-methoxyphenyl)-N^4-ethyl-N^4-methyl-8-phenyl-5,6,7,8-tetrahydroquinazoline-2,4-diamine] | 10 to 100 nM | – | –
COc1cc(Nc2nc3c(c(N(C)C)n2)CCCC3c2ccc(F)cc2)ccc1-n1cnc(Cl)c1 (single isomer, unassigned) [Example 127A, N^2-(4-(4-chloro-1H-imidazol-1-yl)-3-methoxyphenyl)-8-(4-fluorophenyl)-N^4,N^4-dimethyl-5,6,7,8-tetrahydroquinazoline-2,4-diamine] | 1.5 to 9.9 nM | – | –
COc1cc(Nc2nc3c(c(N(C)C)n2)CCCC3c2ccc(F)cc2)ccc1-n1cnc(Cl)c1 (single isomer, unassigned) [Example 127B, N^2-(4-(4-chloro-1H-imidazol-1-yl)-3-methoxyphenyl)-8-(4-fluorophenyl)-N^4,N^4-dimethyl-5,6,7,8-tetrahydroquinazoline-2,4-diamine] | 10 to 100 nM | – | –
CCNc1nc(Nc2ccc(-n3cnc(Cl)c3)c(OC)c2)nc2c1CCN(CC)C2c1ccc(F)cc1 (single isomer, unassigned) [Example 169A, N2-(4-(4-chloro-1H-imidazol-1-yl)-3-methoxyphenyl)-N4,7-diethyl-8-(4-fluorophenyl)-5,6,7,8-tetrahydropyrido[3,4-d]pyrimidine-2,4-diamine] | 1.5 to 9.9 nM | – | –
CCNc1nc(Nc2ccc(-n3cnc(Cl)c3)c(OC)c2)nc2c1CCN(C(=O)OC)C2c1ccc(F)cc1 (single isomer, unassigned) [Example 170A, methyl 2-(4-(4-chloro-1H-imidazol-1-yl)-3-methoxyphenylamino)-4-(ethylamino)-8-(4-fluorophenyl)-5,6-dihydropyrido[3,4-d]pyrimidine-7(8H)-carboxylate] | 1.5 to 9.9 nM | – | –
[2H]C([2H])([2H])Nc1nc(Nc2ccc(-n3cnc(Cl)c3)c(OC)c2)nc2c1CCC2c1ccccc1 (single isomer, unassigned) [Example 176A, N^2-(4-(4-Chloro-1H-imidazol-1-yl)-3-methoxyphenyl)-N^4-trideuteromethyl-7-phenyl-6,7-dihydro-5H-cyclopenta[d]pyrimidine-2,4-diamine] | 1.5 to 9.9 nM | – | –
[2H]C([2H])([2H])Nc1nc(Nc2ccc(-n3cnc(Cl)c3)c(OC)c2)nc2c1CCC2c1ccccc1 (single isomer, unassigned) [Example 176B, N^2-(4-(4-Chloro-1H-imidazol-1-yl)-3-methoxyphenyl)-N^4-trideuteromethyl-7-phenyl-6,7-dihydro-5H-cyclopenta[d]pyrimidine-2,4-diamine] | 1.5 to 9.9 nM | – | –
COc1cc(Nc2nc3c(c(N4CC(OC)C4)n2)CCC3c2ccccc2)ccc1-n1cnc(Cl)c1 (single isomer, unassigned) [Example 183A, N-(4-(4-chloro-1H-imidazol-1-yl)-3-methoxyphenyl)-4-(3-methoxyazetidin-1-yl)-7-phenyl-6,7-dihydro-5H-cyclopenta[d]pyrimidin-2-amine] | 1.5 to 9.9 nM | – | –
COc1cc(Nc2nc3c(c(N4CC(OC)C4)n2)CCC3c2ccccc2)ccc1-n1cnc(Cl)c1 (single isomer, unassigned) [Example 183B, N-(4-(4-chloro-1H-imidazol-1-yl)-3-methoxyphenyl)-4-(3-methoxyazetidin-1-yl)-7-phenyl-6,7-dihydro-5H-cyclopenta[d]pyrimidin-2-amine] | 10 to 100 nM | – | –
CNc1nc(Nc2ccc(-n3cnc(C)n3)c(OC)c2)nc2c1CCC2c1ccc(F)cc1F (single isomer, unassigned) [Example 193A, 7-(2,4-difluorophenyl)-N2-(3-methoxy-4-(3-methyl-1H-1,2,4-triazol-1-yl)phenyl)-N4-methyl-6,7-dihydro-5H-cyclopenta[d]pyrimidine-2,4-diamine] | 100 to 1000 nM | – | –
CNc1nc(Nc2ccc(-n3cnc(C)n3)c(OC)c2)nc2c1CCC2c1ccc(F)cc1F (single isomer, unassigned) [Example 193B, 7-(2,4-difluorophenyl)-N2-(3-methoxy-4-(3-methyl-1H-1,2,4-triazol-1-yl)phenyl)-N4-methyl-6,7-dihydro-5H-cyclopenta[d]pyrimidine-2,4-diamine] | 10 to 100 nM | – | –
CNc1nc(Nc2ccc(-n3cnc(C)n3)c(OC)c2)nc2c1CN(C)CC2c1ccc(F)cc1 (single isomer, unassigned) [Example 198A, 8-(4-fluorophenyl)-N2-(3-methoxy-4-(3-methyl-1H-1,2,4-triazol-1-yl)phenyl)-N4,6-dimethyl-5,6,7,8-tetrahydropyrido[4,3-d]pyrimidine-2,4-diamine] | 100 to 1000 nM | – | –
CNc1nc(Nc2ccc(-n3ncnc3C)c(OC)c2)nc2c1CC[C@H]2c1ccc(F)cc1 (single isomer, unassigned) [Example 264A] | – | 1.5 to 9.9 nM | –
CNc1nc(Nc2ccc(-n3cnc(C)n3)c(OC)c2)nc2c1CC[C@@]2(C)c1ccc(F)cc1 (single isomer, unassigned) [Example 265A] | – | 10 to 100 nM | –
CNc1nc(Nc2ccc(-n3cnc(C)n3)c(OC)c2)nc2c1CC[C@H]2c1ccccc1OC (single isomer, unassigned) [Example 266A] | – | 10 to 100 nM | –
CNc1nc(Nc2ccc(-n3cnc(C)n3)c(OC)c2)nc2c1CC[C@H]2c1ccccc1Cl (single isomer, unassigned) [Example 268A] | – | 1.5 to 9.9 nM | –
CNc1nc(Nc2ccc(-n3cnc(C)n3)c(OC)c2)nc2c1CC[C@H]2c1c(F)cc(F)cc1F (single isomer, unassigned) [Example 270A] | – | 1.5 to 9.9 nM | –
CNc1nc(Nc2ccc(-n3cnc(C)n3)c(OC)c2)nc2c1CC[C@H]2c1ccc(Cl)cc1F (single isomer, unassigned) [Example 271A] | – | 1.5 to 9.9 nM | –
CNc1nc(Nc2ccc(-n3cnc(C)n3)c(OC)c2)nc2c1CC[C@H]2c1cccc(OC)c1 (single isomer, unassigned) [Example 272A] | – | 10 to 100 nM | –
COc1cc(Nc2nc3c(c(N4CCC(F)C4)n2)COCC3c2ccc(F)cc2)ccc1-n1cnc(Cl)c1 (stereo in doubt) [Example 57A, N-(4-(4-chloro-1H-imidazol-1-yl)-3-methoxyphenyl)-8-(4-fluorophenyl)-4-((R)-3-fluoropyrrolidin-1-yl)-7,8-dihydro-5H-pyrano[4,3-d]pyrimidin-2-amine] | – | – | IC50 (19 h, read-out: Activity Rating (Aβ42 cellular IC50), numeric value): 14 nM
COc1cc(Nc2nc3c(c(N4CCC(F)C4)n2)COCC3c2ccc(F)cc2)ccc1-n1cnc(Cl)c1 (stereo in doubt) [Example 57B, N-(4-(4-chloro-1H-imidazol-1-yl)-3-methoxyphenyl)-8-(4-fluorophenyl)-4-((R)-3-fluoropyrrolidin-1-yl)-7,8-dihydro-5H-pyrano[4,3-d]pyrimidin-2-amine] | – | 100 to 1000 nM | –

Source: patent US8637525B2, “Compounds for the reduction of beta-amyloid production” (Bristol-Myers Squibb Company, priority 2009, dated 2014)
